“And” between values parts separate entries of the source, which are not always exact repeats. Identical values can stand only once. Inconclusive results and toxic doses are left out. Rule as the data show it: active = T/C of 150% or more; inactive = T/C below 125%.
Tested on: L1210 leukemia ip in BDF1 mice, survival T/C
Experiment: NCI In Vivo Anticancer Drug Screen. Data for tumor model L1210 Leukemia (intraperitoneal) in B6D2F1 (BDF1) mice
Conditions: endpoint: mean survival time, higher = longer survival
Summary of the method: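 In this screen, tumor-bearing mice given compound are compared to those given vehicle, and their survival values are reported as a treated-to-control quotient.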

[1] = dose: 100.0 mg/kg/injection, schedule: Q01DX001 (ip), vehicle: saline
[2] = dose: 200.0 mg/kg/injection, schedule: Q01DX001 (ip), vehicle: saline
[3] = dose: 100.0 mg/kg/injection, schedule: Q01DX009 (ip), vehicle: Klucel (hydroxypropylcellulose) (HPC)
[4] = dose: 100.0 mg/kg/injection, schedule: Q04DX003 (ip), vehicle: Klucel (hydroxypropylcellulose) (HPC)
[5] = dose: 200.0 mg/kg/injection, schedule: Q01DX009 (ip), vehicle: Klucel (hydroxypropylcellulose) (HPC)
[6] = dose: 200.0 mg/kg/injection, schedule: Q04DX003 (ip), vehicle: Klucel (hydroxypropylcellulose) (HPC)
[7] = dose: 400.0 mg/kg/injection, schedule: Q04DX003 (ip), vehicle: Klucel (hydroxypropylcellulose) (HPC)
[8] = dose: 12.5 mg/kg/injection, schedule: Q04DX003 (ip), vehicle: saline
[9] = dose: 25.0 mg/kg/injection, schedule: Q04DX003 (ip), vehicle: saline
[10] = dose: 50.0 mg/kg/injection, schedule: Q01DX001 (ip), vehicle: saline
[11] = dose: 50.0 mg/kg/injection, schedule: Q04DX003 (ip), vehicle: saline
[12] = dose: 400.0 mg/kg/injection, schedule: Q01DX009 (ip), vehicle: Klucel (hydroxypropylcellulose) (HPC)
[13] = dose: 100.0 mg/kg/injection, schedule: Q04DX003 (ip), vehicle: saline
[14] = dose: 200.0 mg/kg/injection, schedule: Q04DX003 (ip), vehicle: saline
[15] = dose: 100.0 mg/kg/injection, schedule: Q01DX009 (ip), vehicle: saline
[16] = dose: 200.0 mg/kg/injection, schedule: Q01DX009 (ip), vehicle: saline

Measured: T/C

Clc1ccc(SCN(CSc2ccc(Cl)cc2)Cc2ccccc2)cc1
inactive: [1] 91 % of control | [2] 90 % of control

COc1ccc(NC(=O)CC=C(C)C)nn1
inactive: dose: 50.0 mg/kg/injection, schedule: Q01DX009 (ip), vehicle: Klucel (hydroxypropylcellulose) (HPC) 100 % of control | [3] 100 % of control | [4] 102 % of control | [5] 91 % of control | [6] 104 % of control | [7] 110 % of control

CC(C)N(CCCCO)C(C)C
inactive: dose: 100.0 mg/kg/injection, schedule: Q01DX001 (ip), vehicle: carboxymethylcellulose (CMC) 91 % of control

C[CH2][Sn]([CH2]C)([O]S(=O)(=O)CC12CCC(CC1=O)C2(C)C)[O]S(=O)(=O)CC12CCC(CC1=O)C2(C)C
inactive: dose: 3.12 mg/kg/injection, schedule: Q01DX009 (ip), vehicle: saline 106 % of control | dose: 5.5 mg/kg/injection, schedule: Q01DX009 (ip), vehicle: saline 109 % of control | dose: 6.25 mg/kg/injection, schedule: Q01DX009 (ip), vehicle: saline 106 % of control and 107 % of control | dose: 6.25 mg/kg/injection, schedule: Q04DX003 (ip), vehicle: saline 112 % of control | dose: 8.2 mg/kg/injection, schedule: Q01DX009 (ip), vehicle: saline 118 % of control | dose: 11.0 mg/kg/injection, schedule: Q04DX003 (ip), vehicle: saline 113 % of control | dose: 12.5 mg/kg/injection, schedule: Q01DX009 (ip), vehicle: saline 106 % of control and 120 % of control | dose: 12.5 mg/kg/injection, schedule: Q04DX002 (ip), vehicle: saline 104 % of control | [8] 114 % of control | dose: 16.0 mg/kg/injection, schedule: Q04DX003 (ip), vehicle: saline 104 % of control | dose: 18.0 mg/kg/injection, schedule: Q01DX009 (ip), vehicle: saline 117 % of control | dose: 22.0 mg/kg/injection, schedule: Q04DX002 (ip), vehicle: saline 107 % of control | dose: 25.0 mg/kg/injection, schedule: Q01DX001 (ip), vehicle: saline 109 % of control | dose: 25.0 mg/kg/injection, schedule: Q01DX009 (ip), vehicle: saline 112 % of control and 115 % of control and 120 % of control | dose: 25.0 mg/kg/injection, schedule: Q04DX002 (ip), vehicle: saline 106 % of control | [9] 112 % of control and 117 % of control | dose: 35.0 mg/kg/injection, schedule: Q04DX002 (ip), vehicle: saline 116 % of control | dose: 35.0 mg/kg/injection, schedule: Q04DX003 (ip), vehicle: saline 113 % of control | dose: 45.0 mg/kg/injection, schedule: Q01DX001 (ip), vehicle: saline 120 % of control | [10] 114 % of control | [11] 102 % of control | dose: 55.0 mg/kg/injection, schedule: Q04DX003 (ip), vehicle: saline 112 % of control

[Cl][Pt+2][Cl].c1ccc(C2CC[N-]CC2)cc1.c1ccc(C2CC[N-]CC2)cc1
inactive: dose: 6.25 mg/kg/injection, schedule: Q04DX003 (ip), vehicle: water 100 % of control | dose: 12.5 mg/kg/injection, schedule: Q04DX003 (ip), vehicle: water 100 % of control | dose: 25.0 mg/kg/injection, schedule: Q04DX003 (ip), vehicle: water 105 % of control | dose: 50.0 mg/kg/injection, schedule: Q04DX003 (ip), vehicle: water 102 % of control

C/C(=C\C(=O)Nc1ncn[nH]1)Nc1ncn[nH]1
inactive: [3] 100 % of control | [4] 95 % of control | [5] 92 % of control | [6] 106 % of control | [12] 102 % of control | [7] 93 % of control

C[N+](C)([O-])CCC=C1c2ccccc2CCc2ccccc21
inactive: [8] 103 % of control | [9] 106 % of control | [11] 103 % of control | [13] 103 % of control | [14] 97 % of control

NS(=O)(=O)c1ccc(NC(=O)Nc2cc([N+](=O)[O-])ccc2F)cc1
inactive: [4] 98 % of control | [6] 95 % of control | [7] 87 % of control

CC(=O)OC1C(CO)OC2C1Oc1nc(=N)c(F)cn12 (centres undefined)
inactive: dose: 100.0 mg/kg/injection, schedule: Q04DX002 (ip), vehicle: saline 92 % of control

O=C(NC(CBr)CCCBr)c1ccc([N+](=O)[O-])cc1 (centres undefined)
inactive: dose: 100.0 mg/kg/injection, schedule: Q04DX003 (ip), vehicle: saline with Tween-80 105 % of control | dose: 200.0 mg/kg/injection, schedule: Q04DX003 (ip), vehicle: saline with Tween-80 94 % of control | dose: 400.0 mg/kg/injection, schedule: Q04DX003 (ip), vehicle: saline with Tween-80 94 % of control

COc1ccc(-c2nc(N)nc3c2CN(CCC(=O)O)C3=O)cc1
inactive: [1] 100 % of control | [2] 95 % of control | dose: 400.0 mg/kg/injection, schedule: Q01DX001 (ip), vehicle: saline 94 % of control

CCP(CC)c1cccc(OC(=O)NC)c1
inactive: dose: 5.0 mg/kg/injection, schedule: Q01DX001 (ip), vehicle: saline 110 % of control | dose: 10.0 mg/kg/injection, schedule: Q01DX001 (ip), vehicle: saline 104 % of control | dose: 20.0 mg/kg/injection, schedule: Q01DX001 (ip), vehicle: saline 107 % of control

CCN(CCO)CC1C(c2ccccc2)C1c1ccccc1 (centres undefined)
inactive: dose: 12.5 mg/kg/injection, schedule: Q04DX002 (ip), vehicle: Klucel (hydroxypropylcellulose) (HPC) 93 % of control | dose: 25.0 mg/kg/injection, schedule: Q04DX002 (ip), vehicle: Klucel (hydroxypropylcellulose) (HPC) 90 % of control | dose: 50.0 mg/kg/injection, schedule: Q04DX002 (ip), vehicle: Klucel (hydroxypropylcellulose) (HPC) 90 % of control

O=C(NCCF)NC1CCC(C(=O)O)CC1 (centres undefined)
inactive: [10] 111 % of control | [1] 107 % of control | [2] 96 % of control

CN1C(=O)CC(c2ccc(N3C(=O)C=CC3=O)cc2)C1=O (centres undefined)
inactive: dose: 25.0 mg/kg/injection, schedule: Q04DX002 (ip), vehicle: saline with Tween-80 102 % of control

[N-]=[N+]=Nc1ccc2cc3ccccc3nc2c1
inactive: dose: 100.0 mg/kg/injection, schedule: Q04DX003 (ip), vehicle: acetone 89 % of control | dose: 200.0 mg/kg/injection, schedule: Q04DX003 (ip), vehicle: acetone 95 % of control | dose: 400.0 mg/kg/injection, schedule: Q04DX003 (ip), vehicle: acetone 87 % of control

Cc1ccc([P+](Cc2ccccc2)(c2ccccc2)c2ccc(C)cc2)cc1
inactive: dose: 15.0 mg/kg/injection, schedule: Q01DX001 (ip), vehicle: saline 96 % of control

Nc1nc(N)nc(SCCO)n1
inactive: [3] 99 % of control | [5] 110 % of control | [12] 93 % of control

COc1cc(C(=O)N2CCCCCCC2)cc(OC)c1OC
inactive: [4] 98 % of control | [6] 102 % of control

C=C(C)CC#N
inactive: [13] 104 % of control | [14] 109 % of control

CCOC(=O)COC
inactive: dose: 50.0 mg/kg/injection, schedule: Q01DX009 (ip), vehicle: saline 100 % of control | [15] 96 % of control | [16] 89 % of control

c1ccc(C2OC(c3ccccc3)C(c3ccccc3)OC2c2ccccc2)cc1 (centres undefined)
inactive: [3] 92 % of control | [5] 97 % of control | [12] 92 % of control

CC(COC(=O)c1ccc(N)cc1)NC1CCCCC1 (centres undefined)
inactive: dose: 75.0 mg/kg/injection, schedule: Q01DX001 (ip), vehicle: other 96 % of control | dose: 150.0 mg/kg/injection, schedule: Q01DX001 (ip), vehicle: other 102 % of control

O=C(O)C(O)c1ccc(Cl)cc1 (centres undefined)
inactive: [15] 96 % of control | [16] 91 % of control

C/C(=C\c1ccc(C)cc1)[N+](=O)[O-]
inactive: dose: 50.0 mg/kg/injection, schedule: Q01DX001 (ip), vehicle: other 108 % of control | dose: 100.0 mg/kg/injection, schedule: Q01DX001 (ip), vehicle: other 100 % of control | dose: 200.0 mg/kg/injection, schedule: Q01DX001 (ip), vehicle: other 92 % of control | dose: 400.0 mg/kg/injection, schedule: Q01DX001 (ip), vehicle: other 103 % of control

O=C1C2C3CCC(O3)C2C(=O)N1Cc1ccccc1CN1C(=O)C2C3CCC(O3)C2C1=O (centres undefined)
inactive: [3] 91 % of control | [5] 91 % of control | [12] 88 % of control

From PubChem BioAssay AID248 (DTP/NCI, 2004)
